In data set [1] the target is T1, Ubiquitin-conjugating enzyme E2 N (Homo sapiens, UniProt P61088).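 Note: Dose-response confirmation in a TR-FRET assay detecting UBC13-driven polyubiquitin chain formation, inhibition measured.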
T1 sequence (P61088 whole entry): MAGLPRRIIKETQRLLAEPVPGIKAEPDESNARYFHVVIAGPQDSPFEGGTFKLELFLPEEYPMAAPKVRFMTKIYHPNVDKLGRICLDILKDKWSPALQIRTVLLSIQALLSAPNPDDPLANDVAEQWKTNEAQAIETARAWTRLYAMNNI
It is filed as functional.

The target of data set [2] is T2, High affinity choline transporter 1 (Homo sapiens, UniProt Q9GZV3).
T2 sequence (Q9GZV3 whole entry): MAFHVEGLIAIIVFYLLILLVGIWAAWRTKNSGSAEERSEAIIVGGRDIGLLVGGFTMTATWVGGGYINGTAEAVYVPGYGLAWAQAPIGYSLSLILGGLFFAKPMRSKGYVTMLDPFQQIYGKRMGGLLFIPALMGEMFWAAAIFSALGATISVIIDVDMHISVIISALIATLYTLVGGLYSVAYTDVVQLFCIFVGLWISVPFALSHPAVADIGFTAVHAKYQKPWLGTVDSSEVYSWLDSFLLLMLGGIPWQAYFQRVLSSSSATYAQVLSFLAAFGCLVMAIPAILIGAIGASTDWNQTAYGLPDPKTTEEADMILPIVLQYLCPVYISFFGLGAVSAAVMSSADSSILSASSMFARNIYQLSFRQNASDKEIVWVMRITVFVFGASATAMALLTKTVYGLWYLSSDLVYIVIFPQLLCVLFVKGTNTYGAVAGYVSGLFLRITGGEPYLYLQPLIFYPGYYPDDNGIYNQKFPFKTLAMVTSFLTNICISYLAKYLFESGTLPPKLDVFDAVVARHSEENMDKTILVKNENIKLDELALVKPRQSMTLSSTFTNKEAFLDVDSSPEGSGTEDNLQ
Nature of the data set: human choline transporter blockers, potency – cell-based, 5-point CRC, membrane potential dye, dose response (AID 504840). It is filed as functional.

The target in data set [3] is T3, Short transient receptor potential channel 4 (Mus musculus, UniProt Q9QUQ5).
T3 sequence (Q9QUQ5 whole entry): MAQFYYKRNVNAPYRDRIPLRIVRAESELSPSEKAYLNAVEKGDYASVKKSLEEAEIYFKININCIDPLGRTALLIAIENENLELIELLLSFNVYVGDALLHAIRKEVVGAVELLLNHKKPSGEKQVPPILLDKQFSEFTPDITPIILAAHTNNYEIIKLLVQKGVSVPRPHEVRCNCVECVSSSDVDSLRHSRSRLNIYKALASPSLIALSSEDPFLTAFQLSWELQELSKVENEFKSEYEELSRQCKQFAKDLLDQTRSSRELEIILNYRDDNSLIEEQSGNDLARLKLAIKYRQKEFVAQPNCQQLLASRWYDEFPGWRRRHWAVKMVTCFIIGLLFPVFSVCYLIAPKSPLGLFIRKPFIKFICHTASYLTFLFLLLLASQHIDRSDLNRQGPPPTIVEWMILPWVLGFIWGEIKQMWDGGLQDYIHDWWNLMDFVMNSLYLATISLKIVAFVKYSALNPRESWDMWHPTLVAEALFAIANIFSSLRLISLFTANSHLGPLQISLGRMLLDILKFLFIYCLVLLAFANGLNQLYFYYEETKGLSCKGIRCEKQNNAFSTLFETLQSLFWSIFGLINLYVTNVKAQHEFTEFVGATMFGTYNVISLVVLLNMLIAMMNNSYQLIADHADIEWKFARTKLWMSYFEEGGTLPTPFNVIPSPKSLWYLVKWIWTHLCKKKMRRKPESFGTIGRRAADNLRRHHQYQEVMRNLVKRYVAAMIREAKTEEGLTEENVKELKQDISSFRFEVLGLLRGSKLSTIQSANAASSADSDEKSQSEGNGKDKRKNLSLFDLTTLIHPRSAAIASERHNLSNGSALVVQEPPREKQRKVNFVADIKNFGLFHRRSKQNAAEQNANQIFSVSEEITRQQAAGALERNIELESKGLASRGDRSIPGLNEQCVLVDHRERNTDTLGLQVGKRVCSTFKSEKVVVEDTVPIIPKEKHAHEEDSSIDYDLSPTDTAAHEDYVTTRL
Put plainly: calcium entry via TRPC4 opening agents – cell-based, HEK293 TRPC4/mu-opioid, Fluo-4 calcium, dose response (AID 434937). It is filed as functional.

Data set [4] is described as follows: viability of PTEN-deleted HCT116 cells – cell-based, HCT116 PTEN knockout, dose response (AID 1047).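 Note: HCT116 colon tumor cells with PTEN knocked out; cells exposed to compound for 60 hours before readout; potency for loss of cell viability measured by luminescence.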 The format is functional.
Data set [5] can be described thus: viability of HCT116 lacking mutant beta-catenin – cell-based, human colon tumor, dose response (AID 1045).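 Note: HCT116 colon tumor cells with beta catenin knocked out; cells exposed to compound for 60 hours.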 It is filed as functional.
A further data set deals with T4, Aminopeptidase N (Plasmodium falciparum FcB1/Columbia, UniProt O96935).
T4 sequence (O96935 whole entry): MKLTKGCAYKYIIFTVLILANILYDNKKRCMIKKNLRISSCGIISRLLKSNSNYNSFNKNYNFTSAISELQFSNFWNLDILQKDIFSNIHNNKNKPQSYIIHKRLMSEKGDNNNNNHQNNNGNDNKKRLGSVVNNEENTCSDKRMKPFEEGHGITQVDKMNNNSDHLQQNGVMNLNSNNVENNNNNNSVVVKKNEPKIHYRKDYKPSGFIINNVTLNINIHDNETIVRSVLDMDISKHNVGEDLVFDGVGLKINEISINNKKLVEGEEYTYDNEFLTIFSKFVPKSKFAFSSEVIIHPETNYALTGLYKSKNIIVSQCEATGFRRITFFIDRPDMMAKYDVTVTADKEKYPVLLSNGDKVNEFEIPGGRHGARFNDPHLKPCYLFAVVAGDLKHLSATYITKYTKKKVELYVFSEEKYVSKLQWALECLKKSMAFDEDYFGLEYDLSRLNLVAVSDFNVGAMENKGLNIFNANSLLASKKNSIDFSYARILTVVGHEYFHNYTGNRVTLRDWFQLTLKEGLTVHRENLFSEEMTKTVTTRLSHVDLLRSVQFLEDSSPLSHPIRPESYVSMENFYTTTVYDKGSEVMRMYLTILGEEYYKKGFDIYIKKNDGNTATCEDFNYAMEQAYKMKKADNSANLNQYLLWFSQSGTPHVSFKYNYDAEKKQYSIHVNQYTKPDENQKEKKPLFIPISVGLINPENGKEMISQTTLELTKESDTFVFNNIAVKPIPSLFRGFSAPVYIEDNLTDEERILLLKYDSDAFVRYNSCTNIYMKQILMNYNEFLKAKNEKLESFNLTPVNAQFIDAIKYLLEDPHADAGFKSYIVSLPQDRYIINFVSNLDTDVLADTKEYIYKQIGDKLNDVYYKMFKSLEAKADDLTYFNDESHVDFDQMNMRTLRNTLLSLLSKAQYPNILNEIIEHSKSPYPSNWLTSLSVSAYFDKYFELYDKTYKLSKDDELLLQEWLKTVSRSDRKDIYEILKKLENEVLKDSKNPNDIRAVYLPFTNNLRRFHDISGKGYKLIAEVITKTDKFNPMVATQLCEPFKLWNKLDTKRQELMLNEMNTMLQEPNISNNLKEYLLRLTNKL
Put plainly: malaria alanyl aminopeptidase activity blockers – biochemical, fluorogenic H-Leu-NHMec substrate, 1536-well (AID 1445). The arrangement: species or system Plasmodium falciparum 3D7, 3D7.

In a further data set the target is Cytochrome P450 2D6 (Homo sapiens, UniProt P10635).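 Note: CYP2D6 member of a cytochrome P450 panel assay.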
The next data set deals with Cytochrome P450 2C19 (Homo sapiens, UniProt P33261). Nature of the data set: Cytochrome panel assay with activity outcomes. Panel member name: p450-cyp2c19 Compounds with AC50 equal or less than 10 uM are considered active. The format is functional. As to conditions: read-out: AC50.
The next data set deals with Cytochrome P450 2C9 (Homo sapiens, UniProt P11712).
A short description of data set [6]: intracellular Trypanosoma cruzi inhibitors in host cells – cell-based, plate reader, cherry-pick samples, set 3, dose response (AID 651818).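 Note: compounds incubated with infected cells for about four days.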 It is filed as functional.
The next data set concerns the target T5, Cytochrome P450 1A2 (Homo sapiens, UniProt P05177).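 Note: PubChem cytochrome P450 panel assay, CYP1A2 panel member.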
T5 sequence (P05177 whole entry): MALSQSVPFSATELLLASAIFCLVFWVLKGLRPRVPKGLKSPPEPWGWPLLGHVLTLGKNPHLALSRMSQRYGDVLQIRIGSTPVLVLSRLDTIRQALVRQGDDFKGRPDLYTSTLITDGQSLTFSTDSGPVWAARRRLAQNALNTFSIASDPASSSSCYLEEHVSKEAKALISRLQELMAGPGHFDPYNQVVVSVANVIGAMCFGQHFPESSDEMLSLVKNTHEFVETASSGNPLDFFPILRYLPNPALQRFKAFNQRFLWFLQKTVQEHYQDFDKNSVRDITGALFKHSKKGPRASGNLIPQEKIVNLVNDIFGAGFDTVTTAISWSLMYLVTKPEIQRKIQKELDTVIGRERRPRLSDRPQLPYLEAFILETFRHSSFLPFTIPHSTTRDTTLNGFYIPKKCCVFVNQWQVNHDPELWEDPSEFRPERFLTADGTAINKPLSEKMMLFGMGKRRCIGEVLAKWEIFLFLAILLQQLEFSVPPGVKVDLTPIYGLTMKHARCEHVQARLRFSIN

A short description of data set [7]: viability of uninfected HEp-2 cells – cell-based, HTS, cytotoxicity control for RSV inhibitor project, dose response (AID 2410). It is filed as functional. Conditions: human respiratory syncytial virus.
Data set [8] can be described thus: Luminescence Cell-Based Dose Retest to Confirm Inhibitors of Cancer Stem Cells. [Related pubchem assays (depositor defined):AID2717, AID2721]. It is filed as functional, Homo sapiens. Conditions: Homo sapiens.
Data set [9] is described as follows: microbe, parasite or virus in culture. It is filed as functional. Conditions: Mycobacterium tuberculosis.

Active and inactive are the calls of the source.

The IC50 is the concentration that inhibits the measured activity by half. A word on the EC50: it is the concentration that produces a half-maximal response. For orientation: AC50 means the midpoint of the concentration-response curve, whichever way the signal moves.

Cytochrome P450 2C9, sequence (P11712 whole entry): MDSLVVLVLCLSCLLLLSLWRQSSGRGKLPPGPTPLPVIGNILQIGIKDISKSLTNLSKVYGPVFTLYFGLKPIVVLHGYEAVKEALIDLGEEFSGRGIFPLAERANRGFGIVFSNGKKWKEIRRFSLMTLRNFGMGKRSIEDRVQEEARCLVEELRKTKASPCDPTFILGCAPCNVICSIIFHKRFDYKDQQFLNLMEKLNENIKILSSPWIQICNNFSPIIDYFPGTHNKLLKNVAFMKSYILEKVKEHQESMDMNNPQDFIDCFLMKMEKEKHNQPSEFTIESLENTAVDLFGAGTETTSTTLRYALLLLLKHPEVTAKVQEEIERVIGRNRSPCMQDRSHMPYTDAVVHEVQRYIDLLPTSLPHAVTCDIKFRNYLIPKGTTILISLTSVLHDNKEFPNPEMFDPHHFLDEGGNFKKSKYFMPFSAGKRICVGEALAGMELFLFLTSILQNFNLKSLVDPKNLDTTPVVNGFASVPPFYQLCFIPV
Cytochrome P450 2C19, sequence (P33261 whole entry): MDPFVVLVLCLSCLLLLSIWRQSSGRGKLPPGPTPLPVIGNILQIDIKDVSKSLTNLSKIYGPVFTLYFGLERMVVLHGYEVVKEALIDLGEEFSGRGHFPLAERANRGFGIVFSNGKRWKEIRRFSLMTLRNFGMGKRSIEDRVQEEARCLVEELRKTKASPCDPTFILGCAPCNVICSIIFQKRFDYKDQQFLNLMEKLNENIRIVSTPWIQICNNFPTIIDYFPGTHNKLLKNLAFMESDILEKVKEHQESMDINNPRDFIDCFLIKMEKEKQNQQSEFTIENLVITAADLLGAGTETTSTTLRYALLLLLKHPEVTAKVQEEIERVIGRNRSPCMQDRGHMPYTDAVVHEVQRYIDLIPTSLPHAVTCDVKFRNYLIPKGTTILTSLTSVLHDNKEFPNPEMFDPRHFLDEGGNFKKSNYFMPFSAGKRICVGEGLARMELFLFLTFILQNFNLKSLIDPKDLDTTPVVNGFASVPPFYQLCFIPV
Cytochrome P450 2D6, sequence (P10635 whole entry): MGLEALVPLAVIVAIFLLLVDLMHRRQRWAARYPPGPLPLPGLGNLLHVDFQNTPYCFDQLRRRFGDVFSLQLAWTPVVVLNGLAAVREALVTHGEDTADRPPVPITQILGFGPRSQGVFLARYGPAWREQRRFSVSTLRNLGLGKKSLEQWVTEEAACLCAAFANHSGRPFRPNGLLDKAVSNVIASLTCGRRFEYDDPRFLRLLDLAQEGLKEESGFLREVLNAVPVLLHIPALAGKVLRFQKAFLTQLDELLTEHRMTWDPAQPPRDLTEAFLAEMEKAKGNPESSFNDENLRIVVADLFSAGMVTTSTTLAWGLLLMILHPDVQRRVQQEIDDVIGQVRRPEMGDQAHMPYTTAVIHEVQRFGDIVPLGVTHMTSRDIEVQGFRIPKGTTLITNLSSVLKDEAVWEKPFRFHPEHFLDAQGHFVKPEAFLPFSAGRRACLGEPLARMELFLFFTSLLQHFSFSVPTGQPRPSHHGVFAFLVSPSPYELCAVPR

For the compound `NC(=O)CCCn1c(C(=O)c2cc(Cl)c(N)c(Cl)c2)c2ccc([N+](=O)[O-])cc2[n+]1[O-]`, the IC50 in data set [1] was > 20 µM (inactive); in data set [2], 12.3 µM (active).
As to `Cc1ccccc1C(O)(Cc1ccccc1)C1CN2CCC1CC2` (centres undefined), the EC50 in [3] was 5.31 µM (active); in data set [4], 14.8 µM (active); in [5], 14.5 µM (active).
As to `COCCOC(=O)c1c(C)oc2ccc(NS(=O)(=O)c3cccs3)cc12`, the IC50 at Aminopeptidase N was 48.5 µM (active).
The same measure, in the same setting: to `C=CCOc1ccc(/C=C2\C(=N)N3N=C(S(=O)(=O)CC)SC3=NC2=O)cc1OC` belongs 24.5 µM (active).
With `Cn1c(=O)c2nc(-c3ccccc3)oc2c2ccccc21`, the AC50 on Cytochrome P450 2D6 was 28.2 µM (inconclusive); on Cytochrome P450 2C19, 28.2 µM (inconclusive); at Cytochrome P450 2C9 it was “inconclusive”.
Consider `COc1ccccc1CCC(=O)Nc1cc(S(=O)(=O)N2CCCCC2)ccc1N1CCN(C)CC1`, for which the EC50 in [3] was 0.944 µM (active).
As for `CCCc1cc(=O)oc2c(CN3CCN(C)CC3)c(O)c(Cl)cc12`, the IC50 on Aminopeptidase N is 42 µM (active).
`O=C(N/N=C/c1ccc(-c2cccc(Cl)c2)o1)c1ccccn1`: in [6], the AC50 is 0.15 µM (active).
As to `Cc1noc(C)c1S(=O)(=O)Nc1ccc2c(c1)C(=O)N([C@H](C)CO)C[C@H](C)[C@@H](CN(C)Cc1ccc(C(=O)Nc3ccccc3N)cc1)O2`, the AC50 in data set [6] is 1.4 µM (active).
For the compound `Cc1csc(NC(=O)CCN2C(=O)c3ccccc3S2(=O)=O)n1`, the IC50 in data set [2] was 13.8 µM (active).
For `Cc1ccc(S(=O)(=O)Nc2ccc3c(c2)CC(=O)N([C@@H](C)CO)C[C@@H](C)[C@@H](CN(C)Cc2ccc(Oc4ccccc4)cc2)O3)cc1`, the AC50 in data set [6] is 4.9 µM (active).
Regarding `Cn1c(CN2CCCCC2)nc2cc(NC(=O)c3ccccc3Cl)ccc21`, the IC50 in data set [2] is 13.5 µM (active).
Consider `CS(=O)(=O)N1CCC(C(=O)c2cccc(Cl)c2)CC1`, for which the IC50 on Aminopeptidase N is 41.1 µM (active).
For the compound `Cc1sc2nc(CSc3ccccc3)nc(NCCN(C)C)c2c1C`, the EC50 in data set [3] is 2.99 µM (active).
As to `C[C@@H]1CCCCO[C@H](CN(C)Cc2ccc(Cl)c(Cl)c2)[C@@H](C)CN([C@H](C)CO)C(=O)c2cc(NC(=O)Nc3cccc4ccccc34)ccc2O1`, in [6], the AC50 is 3.72 µM (active).
`Nc1ccn([C@@H]2CC[C@H](CO)O2)c(=O)n1`: the AC50 result on Cytochrome P450 2C9 is reported as “inconclusive”.
Consider `C[C@H]1CN([C@@H](C)CO)C(=O)Cc2cc(NC(=O)C3CC3)ccc2O[C@@H]1CN(C)Cc1ccc(C(F)(F)F)cc1`, for which, in data set [6], the AC50 was 3.25 µM (active).
For the compound `O=C(CCCN1C(=O)c2cccc3cccc(c23)C1=O)N1CCc2ccccc2C1`, the figures for the AC50 on Cytochrome P450 2D6 and at Cytochrome P450 2C9 were 22.4 µM (inconclusive) and “inconclusive”, respectively.
As for `CNc1oc(C)nc1S(=O)(=O)c1ccc(C)cc1`, the figures for the AC50 on Cytochrome P450 2C19 and on Cytochrome P450 2C9 were 31.6 µM (inconclusive) and “inconclusive”, respectively.
With `CCN1CCN(C(=O)c2ccc3nc(-c4ccccc4)c(-c4ccccc4)nc3c2)CC1`, the IC50 in data set [2] was 15.6 µM (active).
Turning to `CN(C)C(=O)c1ccc(-c2nc(NC3CCNCC3)c3ccccc3n2)cc1`, the AC50 on Cytochrome P450 1A2 was 20 µM (inconclusive); on Cytochrome P450 2C9, “inconclusive”.
In the case of `CC(C)C(=O)Nc1cccc(NC(=O)c2ccc(Cl)cc2Cl)c1`, the IC50 in [2] is 7.24 µM (active).
Turning to `CN1CCN(c2ncc3nc(-c4cn(C)c5ccccc45)c(=O)n(C[C@H]4CCCO4)c3n2)CC1`, the concentration at half-maximal activity (AC50) on Cytochrome P450 1A2 is 6.31 µM (inconclusive); at Cytochrome P450 2C9 it was “inconclusive”.
Consider `CCn1c(C)c(C)c2cc(C(=O)Nc3cccc(Cl)c3)ccc21`, for which the CC50 in data set [7] was 30.4 µM (active); in [9] it was > 40 µM (active). The AC50 in [8] was 3.56 µM (active); on Cytochrome P450 2C9, “inconclusive”.
With `CN(CCc1ccccn1)C(=O)CC1C(=O)NCCN1Cc1cccc(F)c1` (centres undefined), in data set [3], the EC50 was 2.37 µM (active).
`O=C(CSc1nc2ccccc2c(=O)n1C1CC1)NCc1ccccc1`: the IC50 in data set [2] is 4.79 µM (active).
As for `Cc1cccc(C)c1OCC(O)CN` (centres undefined), the EC50 in data set [3] is 4.22 µM (active).

The record behind these values is ChEMBL document CHEMBL1201862, “PubChem BioAssay data set” (2004).
